Experimental data: US20200208112A1, “Method of Selecting Genetically Modified Hematopoietic Stem Cells” (priority 2017, published 2020)

Columns and labels:
[1] = tested on: mobilized peripheral blood (mPB) CD34+ cells; assay: Puromycin selection of transduced mobilized peripheral blood CD34+ cells (mean VCN, progenitor assay); format: cell-based, human
Description: (§1) (Beckman Coulter). Where indicated, purification was performed with a Mustang Q anion exchange membrane cartridge (Pall Corporation), as previously described (Kutner et al., Nature protocols, 2009, 4, 495-505) and a 40K ZebaSpin desalting column (ThermoFisher Scientific), according to the manufacturer's instructions, with concentration by ultracentrifugation. Infectious titers were determined by qPCR, as previously described (Payen, E. et al., Methods in enzymology, 2012, 507, 109-124). When indicated, transduced NIH3T3 cells were selected on puromycin and treated with various concentrations of ganciclovir (Cymevan, Roche). Adult and cord blood CD34^+ cells were cultured in SCGM (CellGenix) and X-VIVO 20 (Lonza) medium, respectively, and transduced as previously described (Negre, O. et al., Current gene therapy, 2015, 15, 64-81). Cells were selected 48 hours after transduction, on puromycin hydrochloride (5 μg/mL, Sigma-Aldrich).
(§2) Vector copy numbers were determined by the comparative Ct method and set at integer values. Colony-forming cells with VCN values between 0.5 and 1.5 were considered to have a VCN of 1; those with VCN values between 1.5 and 2.5 were considered to have a VCN of 2, and so on. LTC-IC cells were analyzed as previously described (Payen, E. et al., Methods in enzymology, 2012, 507, 109-124). The percentage of vector-modified LTC-IC during the readout phase of the assay was determined, by subjecting no more than one clonogenic myeloid colony per well to qPCR-based scoring to ensure that only independent LTC-ICs were analyzed.
The LTGCPU1 vector expressing the puromycin N-acetyl-transferase (PAC) gene under the human PGK promoter is derived from a β-globin LV that has been tested in an approved human trial for the gene therapy of the beta-hemoglobinopathies (Cavazzana Calvo et al., Nature, 2010; 467, 318-322; FIG. 1). LTGCPU1 transduced bone marrow (BM) CD34^+ cells were transferred onto selective medium containing 10 μg/mL puromycin at 24 or 48 hours after transduction. They were incubated for 24 hours, and the frequency of functional hematopoietic progenitor cell subsets was evaluated. The absolute numbers of vector-bearing erythroid progenitors (BFU-Es) were similar in the presence and absence of treatment, regardless of the time allowed for PAC gene expression. However, incubation for two days was required for the myeloid (CFU-GMs) and long-term progenitor cells (LTC-ICs) to acquire full resistance to the antibiotic (FIG. 2a). Mobilized peripheral blood (mPB) CD34^+ cells were also transduced with LTGCPU1 and treated with puromycin. The mean vector copy number (VCN) per cell was determined for pooled cells and compared with the theoretical VCN obtained in optimal conditions (eradication of all non-transduced cells and survival of all vector-bearing cells). In non-selective conditions, the mean VCN was 0.17. Based on the assumption that vector integration obeys Poisson statistics (see below), optimal selection should give rise to 1.08 copies of the vector per cell. Mean VCN was 1.6 when cells were selected 24 hours after transduction, and close to the expected value (1.08) if puromycin treatment began two or three days after transduction (FIG. 2b). […] With this optimized protocol, the proportion of vector-bearing progenitors (myeloid and erythroid) increased from 10-20% to more than 90% following treatment with 5 μg/mL puromycin (FIG. 2c).

[2] = tested on: bone marrow (BM) CD34+ cells; assay: Puromycin selection of LTGCPU1-transduced bone marrow CD34+ cells (progenitor and LTC-IC assays); format: cell-based, human; conditions: 10 μg/mL puromycin for 24 hours, 24 or 48 hours after transduction
Description: as §1
as §2, with “Colony-forming cells with VCN values between 0.5 and 1.5 were considered to have a VCN of 1; those with VCN values between 1.5 and 2.5 were considered to have a VCN of 2, and so on.” left out, “analyzed. […]” for “analyzed.”

[3] = tested on: SCID-repopulating cells (SRC); assay: Transplantation of transduced and selected cord blood CD34+ cells into NSG mice (SRC selection); conditions: puromycin alone, three months after transplantation
Description: NOD.Cg-Prkdc^scid Il2rg^tmlWjl/SzJ (NOD-scid IL2rgamma^null abbreviated to NSG) mice were obtained from Charles River Laboratories (Saint Germain sur l'Arbresle, France) and kept in individually ventilated cages supplied with sterile food and autoclaved water. […] Experimental protocols were approved by the ethics committee for animal experimentation of the CEA, under notification number 12-033. Three- to four-month-old female recipients (at least 6 mice per group) were sublethally irradiated with a dose of 2.8 Gy (1 Gy/min) to the whole body (TBI). Then, 10^4 to 10^5 transduced and selected human cells were injected intravenously into the mice on the day after irradiation. […]
For progenitor assays performed immediately after in vitro transduction and selection, 500 to 1000 cells were plated in methylcellulose based-medium already supplemented with human cytokines (H4434, Stemcell Technologies). […] The colonies were counted and collected after incubation for 11-14 days, washed with PBS and stored. […]
Non-viable cells were excluded by Sytox Blue nucleic acid staining (ThermoFisher Scientific) or with 7AAD (eBioscience). Data were acquired with MACSQUANT instrument (Miltenyi) and analyzed with FlowJo software (Tree Star, Inc). […]

cord blood CD34+ cells = assay: Selection of LTGCPU7-transduced cord blood CD34+ cells, progenitor assay on methylcellulose; format: cell-based, human
Description: as §1, §2

NIH3T3 cells = assay: Puromycin selection and ganciclovir sensitivity of LTGCPU7-transduced NIH3T3 cells; format: cell-based
Description: a. NIH3T3 cells were mock-transduced (NT) or transduced with LTGCPU7, and LTGCPU7-transduced cells were selected with puromycin. Equivalent numbers of mock- and LTGCPU7-transduced/selected cells were treated with GCV at the indicated concentration. Living cells were counted three days later.
as §1

CB CD34+ cells = assay: Conditional suicide in vitro: ganciclovir treatment of CB CD34+ cells, erythroid progenitor assay; format: cell-based, human
Description: (§3) a.b.c.d. Human cord blood CD34^+ cells were transduced with LTGCPU7 and treated with puromycin and cyclosporine A for 24 hours. Non-transduced (NT) and LTGCPU7-transduced cells were then treated with ganciclovir (GCV) for three days, counted (a) and plated on semi-solid medium for the evaluation of erythroid progenitor cell eradication (b). Selected cells were also injected into 16 NSG mice, half of which were treated with GCV four weeks later (50 mg/kg, 6 days per week, for 2 weeks). Human chimerism (c) and VCN in human CD45^+ cells (d) were determined 2 months later.
(§4) CB CD34+ cells were transduced with LTGCPU7, they were treated with ganciclovir for 72 hours, and plated on methylcellulose. The toxicity of ganciclovir was limited in non-transduced cells (FIG. 8a and FIG. 8b) and the number of transduced erythroid progenitors decreased by a factor of 200 and 1000 in the presence of 1 μM and 5 μM ganciclovir respectively (FIG. 8b). The transduced cells were injected into 16 NSG mice. Four weeks later, eight of the mice received ganciclovir. […] The absence of hCD45+ cells in mice with levels below the limit of sensitivity (<0.01%) was confirmed by the lack of enrichment observed on hCD45 cell sorting.

[4] = tested on: transduced human hCD45+ cells; assay: Conditional suicide in vivo: ganciclovir treatment of NSG mice carrying transduced human cells; conditions: treated group, 50 mg/kg 6 days per week for 2 weeks, two months later
Description: as §3, §4

## COc1ccc(C[C@H](N)C(=O)N[C@H]2[C@@H](O)[C@H](n3cnc4c(N(C)C)ncnc43)O[C@@H]2CO)cc1 [puromycin]
[1]; LTGCPU1-transduced, optimized protocol
  absolute numbers of transduced progenitors, presence versus absence of puromycin: similar
[1]; LTGCPU1-transduced, 5 μg/mL puromycin for 24 hours, 48 hours after transduction
  proportion of vector-bearing progenitors (myeloid and erythroid): more than 90%
[1]; LTGCPU1-transduced, puromycin 10 μg/mL, selected 24 hours after transduction
  mean VCN per cell, pooled cells: 1.6
[1]; LTGCPU1-transduced, puromycin treatment began two or three days after transduction
  mean VCN per cell, pooled cells: ~1.08
[1]; mPB cells, after selection with puromycin (data not shown)
  percentage of transduced progenitor cells in vitro: 100%
[1]; mPB cells, in vitro
  mean VCN in puromycin-treated cells: greater than 1
[2]
  absolute numbers of vector-bearing erythroid progenitors (BFU-Es), presence versus absence of treatment: similar
[3]
  mean VCN in hCD45+ cells isolated from mice versus absence of treatment: similar
Cord blood CD34+ cells; 5 μg/mL puromycin for 24 hours
  selection of LTGCPU7-transduced cord blood progenitors: efficiently selected
Cord blood CD34+ cells; 5 μg/mL puromycin, absence of MDR1 inhibitors
  mean VCN in erythroid progenitors, pooled cells from methylcellulose: ≈ 0.5
Cord blood CD34+ cells; puromycin alone
  mean VCN and percentage of vector-bearing cells in erythroid progenitors versus untreated: higher

## Nc1nc(O)c2ncn(COC(CO)CO)c2n1 [ganciclovir]
NIH3T3 cells
  sensitivity of LTGCPU7-transduced, puromycin-selected cells to ganciclovir: sensitive
CB CD34+ cells
  toxicity in non-transduced cells: limited
CB CD34+ cells; 5 μM ganciclovir, 72 hours
  factor of decrease of the number of transduced erythroid progenitors: 1000
[4]
  mice in which hCD45+ cells were detected: one of the eight mice
